Test results published in paper PMC6882468 (Journal of Enzyme Inhibition and Medicinal Chemistry, 2019).

What was measured:
[1] = target: T1, COX-2 (Homo sapiens, UniProt P35354); experiment: COX-2 inhibition assay in vitro (COX Inhibitor Screening Kit, fluorometric)
T1 sequence (P35354 18-604): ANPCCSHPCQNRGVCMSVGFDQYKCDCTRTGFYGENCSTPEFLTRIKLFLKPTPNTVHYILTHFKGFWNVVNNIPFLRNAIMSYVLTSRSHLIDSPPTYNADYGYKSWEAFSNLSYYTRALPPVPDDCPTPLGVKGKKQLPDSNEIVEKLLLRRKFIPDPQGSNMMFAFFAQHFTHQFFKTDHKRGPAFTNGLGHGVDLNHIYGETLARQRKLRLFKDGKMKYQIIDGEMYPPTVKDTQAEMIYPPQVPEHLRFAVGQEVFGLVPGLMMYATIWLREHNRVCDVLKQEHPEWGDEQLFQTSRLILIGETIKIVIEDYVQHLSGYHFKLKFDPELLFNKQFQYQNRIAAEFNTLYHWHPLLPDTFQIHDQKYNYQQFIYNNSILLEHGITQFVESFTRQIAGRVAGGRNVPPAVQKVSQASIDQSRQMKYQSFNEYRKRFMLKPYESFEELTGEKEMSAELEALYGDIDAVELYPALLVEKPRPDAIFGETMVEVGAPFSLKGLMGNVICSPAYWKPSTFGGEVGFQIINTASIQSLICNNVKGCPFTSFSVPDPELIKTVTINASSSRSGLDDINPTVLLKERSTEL
Description: Simply, different concentrations of the test compound solution were added to the mixed solution containing COX-1/COX-2 enzyme (10 µL) and Assay Buffer (960 µL, 0.1 M Tris-HCl pH 8.0 containing 5 µM EDTA and 2 µM phenol). […] The IC50 values were calculated as described above.

[2] = tested on: JNK phosphorylation in RAW264.7 cells; experiment: Western blot of LPS-induced JNK phosphorylation; type: cell-based, Murine; settings: RAW264.7, 5, 10, 20 μM, LPS 200 ng/mL
Description: (§1) The cell in 96-well plates were treated as described above and then stimulated with LPS (200 ng/mL) for 24 h. The cells were harvested and lysed in an extraction lysis buffer (Beyotime Biotechnology, Shanghai, China) containing protease inhibitors. The protein concentration was determined using a BCA protein assay kit (Thermo Scientific, 23227). The whole cell lysates were separated by 10% sodium dodecyl sulphate-polyacrylamide gel electrophoresis and transferred to a nitrocellulose membrane. Each membrane was incubated with Tris-buffered saline (pH 7.6, containing 0.05% Tween-20 and 5% non-fat milk). The nitrocellulose membrane was incubated with the primary antibody against p-JNK1/2, JNK1/2, p-p38, p38, p-ERK1/2, ERK1/2, IκBa, NF-κB p65, COX-2, iNOS or β-Actin (Abcam, Cambridge, UK). Immunoreactive bands were detected by incubating with horseradish peroxidase-conjugated secondary antibodies, and visualised using enhanced chemiluminescence reagents (Bio-Rad, Hercules, CA).
Figure 7. Compound 6n inhibited LPS-induced MAPK-signalling activation in RAW264.7 cells. RAW264.7 cells were co-incubated with 6n (5, 10, 20 μM) and LPS (200 ng/mL) for 30 min. The levels of p38, JNK, ERK1/2 and their phosphorylated forms were analysed using western blot.

[3] = target: p38α MAPK (Homo sapiens, UniProt Q16539); experiment: p38α MAPK inhibition assay in vitro; type: biochemical; settings: triplicate, read-out: IC50 p38p
Description: In brief, after mixing the enzyme reagent with the sample, a reaction mixture containing 200 µM biotin-peptide substrate and 600 µM ATP (+100 µCi/mL γ-^32 P-ATP) was added to initiate the reaction. […] Part of the reaction solution was transferred to the well of a streptavidin-coated flash plate, washed in PBS containing 0.01% Tween and sealed. The average value of counts per minute for each group and the IC50 value was calculated.
The average fluorescence values of each well were calculated and recorded as RFU (Relative Fluorescence Unit) blank control (RFU blank), RFU 100% enzyme activity control (RFU enzyme), RFU positive drug control (RFU drug) and RFU test compound (RFU compound). The inhibition rate is calculated according to the following formula. Inhibition rate (%)= (RFU (enzyme) – RFU (compound/drug) […]) /(RFU (enzyme) – RFU (blank)) * 100%
The IC50 value of the test compound was calculated by the concentration-inhibition reaction curve and the assays were performed in triplicate.

[4] = tested on: DNFB-induced mouse model of allergic contact dermatitis; experiment: DNFB-induced mouse model of allergic contact dermatitis (ear swelling); type: in vivo, Male ICR mice
Description: Male ICR mice (20 ± 2 g) were obtained from the Experimental Animal Centre of Anhui Medical University (Hefei, China). The mice reared in a pathogen-free setting (23 ± 2 °C, 55 ± 5% humidity) with free access to water and pelleted food throughout the experimental cycle. All experimental procedures performed in accordance with guide for the Care and Use of Laboratory Animals (National Research Council, 1996) and were approved by the Experimental Animal Ethics Committee of Anhui University of Chinese Medicine (Hefei, China). After 7 days acclimatisation, the mice were randomly divided into control group, ACD model group, dexamethasone positive control group and 20 compound groups, six in each group. The control group and the model group were given the same dose of the vehicle, the positive control group was given dexamethasone 0.5 mg/kg, and the test compound groups were given compound 5 mg/kg, all of which were given by intragastric administration and were administered once a day for 6 days. Except for the control group, the 50 µL of 1% DNFB (in acetone/olive oil 4:1) was administered to the stripped epidermis, and repeated the next day. After 6 days of drug treatment, 10 µL of 1% DNFB acetone olive oil solution was applied on both sides of the right ear to stimulate inflammation, and equivalent acetone olive oil solution was applied on the left ear for comparison. […] Calculation was carried out according to the following equations. Swelling degree (mg) = MR – ML Inhibitory rate of ear swelling (%)=((MR – ML) model – (MR – ML) treated)/(MR – ML) model ×100% MR=Average weight of the right ear slices;ML= Average weight of the left ear slices […] Dexamethasone (DEX) at a p.o. dose of 0.5 mg/kg was employed as the positive control. After the mice were sacrificed, the swelling degree and inhibition rate were calculated by weighing the same part of both ears.

[5] = tested on: NF-κB activation in RAW264.7 cells; experiment: Western blot of LPS-induced NF-κB activation; type: cell-based, Murine; settings: RAW264.7, 2-h pre-treatment before LPS stimulation
Description: as §1
Figure 5. Compound 6n inhibited LPS-induced NF-κB activation in RAW264.7 cells. […] The levels of NF-κB p65, IκB, and their phosphorylated forms were analysed using western blot.

p38α MAPK, sequence (Q16539 whole entry): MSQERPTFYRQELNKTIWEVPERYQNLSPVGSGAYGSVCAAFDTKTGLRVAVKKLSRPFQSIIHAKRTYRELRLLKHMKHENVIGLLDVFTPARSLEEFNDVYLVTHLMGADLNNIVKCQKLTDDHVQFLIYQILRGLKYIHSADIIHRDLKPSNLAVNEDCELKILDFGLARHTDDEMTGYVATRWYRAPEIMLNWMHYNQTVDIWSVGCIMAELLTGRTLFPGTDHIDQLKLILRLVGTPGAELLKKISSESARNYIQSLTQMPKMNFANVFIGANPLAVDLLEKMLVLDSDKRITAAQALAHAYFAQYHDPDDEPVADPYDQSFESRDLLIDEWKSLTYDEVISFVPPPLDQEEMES

IC50 [1]: 36 ± 4 nM
SI (COX-1/COX-2) ([1]; IC50 (COX-1)/IC50 (COX-2)): 349.72
IC50 [3]: 1950 ± 130 nM
Compound: COc1ccccc1CN1CCN(C(=O)c2ccccc2C(C)=O)CC1 [Compound 6n, 1–(2-(4–(2-Methoxybenzyl)piperazine-1-carbonyl)phenyl)ethan-1-one]
phosphorylation of JNK [2]: no obvious effect
Swelling degree ([4]; mice, 5 mg/kg intragastric once a day for 6 days, ear slices weighed 24 h after DNFB challenge, Mean ± SD, n = 6): 8.8 ± 3.2 mg
Inhibition (%) of ear swelling ([4]; mice, 5 mg/kg intragastric once a day for 6 days, vs model group): 46.3%
in vivo inhibitory activity, in words ([4]; p.o. 5 mg/kg, p < 0.01): significant inhibitory activity
LPS-induced IκB phosphorylation [5]: markedly decreased
accumulation of NF-κB p65 subunit in the nucleus [5]: lowered
cytosolic IκB [5]: increased
